We go through eight molecules from ChEMBL document CHEMBL4622898, “Synthesis, in vitro ADME profiling and in vivo pharmacological evaluation of novel glycogen phosphorylase inhibitors” (Bioorg Med Chem Lett, 2020).

A word on the IC50: it is the point on the concentration scale where inhibition reaches its midpoint. What is called solubility is how much of the substance goes into solution per volume. By half-life is commonly meant the time needed for the level to fall by half in the phase considered. The term CLint scaled denotes the rate of metabolic loss divided by the concentration. Low values mean slow turnover, high ones rapid turnover. In general, logD refers to the decadic logarithm of the distribution of all forms, ionised or not, between an organic phase and buffer at a given pH. Lower therefore signals lower lipophilicity. A word on the kinetic solubility: it is the concentration staying in solution when a stock, usually in DMSO, is diluted into the medium.

The nature of data set [1]: Inhibition of rabbit muscle Glycogen phosphorylase measured phosphate release from glucose-1-phosphate. Details: species or system Oryctolagus cuniculus.
The next data set concerns HepG2. Nature of the data set: Inhibition of glycogenolysis in human HepG2 cells assessed as GCN-stimulated glycogen breakdown after 5 mins. In kind it is functional, cell-based. The following applies: HepG2, 5 min.
A further data set relates to Hepatocyte. Nature of the data set: Inhibition of glycogenolysis in rat hepatocytes assessed as GCN-stimulated glycogen breakdown after 5 mins. In kind it is functional, cell-based.
The test system of data set [2] is Mus musculus. Nature of the data set: Hypoglycemic activity in adrenaline-induced diabetic mouse assessed as fasted plasma glucose level at 200 mg/kg, po measured immediately (reference value: 4.84 +/- 0.15). In kind it is functional.
Data set [3] has as its system Mus musculus. The data set is described as follows: Hypoglycemic activity in adrenaline-induced diabetic mouse assessed as fasted plasma glucose level at 200 mg/kg, po measured after 30 min (reference value: 9.58 +/- 0.44). In kind it is functional.
The subject of data set [4] is Mus musculus. The data set is described as follows: Hypoglycemic activity in adrenaline-induced diabetic mouse assessed as fasted plasma glucose level at 200 mg/kg, po measured after 60 min (reference value: 8.41 +/- 0.48). In kind it is functional.
Data set [5] concerns Mus musculus. The data set is described as follows: Hypoglycemic activity in adrenaline-induced diabetic mouse assessed as fasted plasma glucose level at 200 mg/kg, po measured after 90 min (reference value: 7.56 +/- 0.49). In kind it is functional.
Data set [6] has as its system Mus musculus. The data set is described as follows: Hypoglycemic activity in adrenaline-induced diabetic mouse assessed as glucose AUC at 200 mg/kg, po measured up to 90 min (reference value: 482.63 +/- 21.01 mg/dL.min). In kind it is functional, organism-based. Details: dose 200 mg/kg, time < 1.5 hr.
Data set [7] in a line: Inhibition of recombinant human liver glycogen phosphorylase a expressed in baculovirus-infected Sf9 cells using glucose-1-phosphate as substrate in presence of 7.5 mM glucose.
The nature of data set [8]: Aqueous solubility of compound. In kind it is physicochemical. The following applies: buffer.
Data set [9] is described as follows: Half life in mouse liver microsomes. In kind it is ADME, Microsome. On the technique in general: Microsomes from liver hold many membrane-bound enzymes, among them those of drug oxidation.
The nature of data set [10]: Intrinsic clearance in mouse liver microsomes. In kind it is ADME, Microsome.
A short description of data set [11]: Clearance in mouse liver microsomes. In kind it is ADME, Microsome.
The nature of data set [12]: Lipophilicity, log D of the compound in 1-Octanol-phosphate buffer at pH 7.4. In kind it is physicochemical.
Data set [13] is described as follows: Stability of compound in simulated intestinal fluid assessed as compound degradation measured up to 1 hr. In kind it is physicochemical. Conditions: simulated gi fluid.
The nature of data set [14]: Stability of compound in mouse plasma assessed as compound degradation measured up to 0.5 hrs. In kind it is ADME, cell-free.
Data set [15] can be described thus: Stability of compound in simulated gastric fluid assessed as compound degradation measured up to 24 hrs relative to control. In kind it is physicochemical. Conditions: read-out: Drug degradation.
A further data set is described as follows: physchem. The following applies: buffer, pH 7.4.
The nature of data set [16]: Stability of compound in simulated gastric fluid assessed as compound degradation measured up to 24 hrs. In kind it is physicochemical. The following applies: simulated gi fluid.
Data set [17] can be described thus: Stability of compound in mouse plasma assessed as compound degradation measured up to 24 hrs. In kind it is ADME, cell-free.
Data set [18] is described as follows: Stability of compound in simulated intestinal fluid assessed as compound degradation measured up to 6 hrs. In kind it is physicochemical. The following applies: simulated gi fluid.
For data set [19], the system named is Mus musculus. Nature of the data set: Hypoglycemic activity in adrenaline-induced diabetic fasted mouse assessed as reduction in plasma glucose level at 12.5 to 50 mg/kg, po. In kind it is functional, organism-based.
Data set [20] is filed under the species Mus musculus. Nature of the data set: Hypoglycemic activity in adrenaline-induced diabetic mouse assessed as blood glucose level measured at 1.5 hrs (reference value: 486.15 +/- 22.65 mg/dl). In kind it is functional.
Data set [21] has as its system Mus musculus. Nature of the data set: Hypoglycemic activity in adrenaline-induced diabetic mouse assessed as fasted plasma glucose level at 50 mg/kg, po measured immediately (reference value: 4.84 +/- 0.15). In kind it is functional.
For data set [22], the system named is Mus musculus. Nature of the data set: Hypoglycemic activity in adrenaline-induced diabetic mouse assessed as fasted plasma glucose level at 25 mg/kg, po measured immediately (reference value: 4.84 +/- 0.15). In kind it is functional.
In data set [23] the test system is Mus musculus. The data set is described as follows: Hypoglycemic activity in adrenaline-induced diabetic mouse assessed as fasted plasma glucose level at 12.5 mg/kg, po measured immediately (reference value: 4.84 +/- 0.15). In kind it is functional.
Data set [24] concerns Mus musculus. Nature of the data set: Hypoglycemic activity in adrenaline-induced diabetic mouse assessed as fasted plasma glucose level at 50 mg/kg, po measured after 30 min (reference value: 9.58 +/- 0.44). In kind it is functional.
The subject of data set [25] is Mus musculus. The data set is described as follows: Hypoglycemic activity in adrenaline-induced diabetic mouse assessed as fasted plasma glucose level at 25 mg/kg, po measured after 30 min (reference value: 9.58 +/- 0.44). In kind it is functional.
For data set [26], the system named is Mus musculus. Nature of the data set: Hypoglycemic activity in adrenaline-induced diabetic mouse assessed as fasted plasma glucose level at 12.5 mg/kg, po measured after 30 min (reference value: 9.58 +/- 0.44). In kind it is functional.
The subject of data set [27] is Mus musculus. The data set is described as follows: Hypoglycemic activity in adrenaline-induced diabetic mouse assessed as fasted plasma glucose level at 50 mg/kg, po measured after 60 min (reference value: 8.41 +/- 0.48). In kind it is functional.
The test system of data set [28] is Mus musculus. The data set is described as follows: Hypoglycemic activity in adrenaline-induced diabetic mouse assessed as fasted plasma glucose level at 25 mg/kg, po measured after 60 min (reference value: 8.41 +/- 0.48). In kind it is functional.
Data set [29] relates to Mus musculus. Nature of the data set: Hypoglycemic activity in adrenaline-induced diabetic mouse assessed as fasted plasma glucose level at 12.5 mg/kg, po measured after 60 min (reference value: 8.41 +/- 0.48). In kind it is functional.
The subject of data set [30] is Mus musculus. The data set is described as follows: Hypoglycemic activity in adrenaline-induced diabetic mouse assessed as fasted plasma glucose level at 50 mg/kg, po measured after 90 min (reference value: 7.56 +/- 0.49). In kind it is functional.
For data set [31], the system named is Mus musculus. The data set is described as follows: Hypoglycemic activity in adrenaline-induced diabetic mouse assessed as fasted plasma glucose level at 25 mg/kg, po measured after 90 min (reference value: 7.56 +/- 0.49). In kind it is functional.
In data set [32] the test system is Mus musculus. The data set is described as follows: Hypoglycemic activity in adrenaline-induced diabetic mouse assessed as fasted plasma glucose level at 12.5 mg/kg, po measured after 90 min (reference value: 7.56 +/- 0.49). In kind it is functional.
The subject of data set [33] is Mus musculus. Nature of the data set: Hypoglycemic activity in adrenaline-induced diabetic mouse assessed as glucose AUC at 50 mg/kg, po measured up to 90 min (reference value: 482.63 +/- 21.01 mg/dL.min). In kind it is functional, organism-based. Details: time < 1.5 hr, dose 50 mg/kg.
In data set [34] the test system is Mus musculus. Nature of the data set: Hypoglycemic activity in adrenaline-induced diabetic mouse assessed as glucose AUC at 25 mg/kg, po measured up to 90 min (reference value: 482.63 +/- 21.01 mg/dL.min). Details: dose 25 mg/kg, time < 1.5 hr. In kind it is functional, organism-based.
The subject of data set [35] is Mus musculus. Nature of the data set: Hypoglycemic activity in adrenaline-induced diabetic mouse assessed as glucose AUC at 12.5 mg/kg, po measured up to 90 min (reference value: 482.63 +/- 21.01 mg/dL.min). In kind it is functional, organism-based. The arrangement: time < 1.5 hr, dose 12.5 mg/kg.

Values after ≈ are worked out from the molar mass of the structure shown. Active and inactive are the calls of the source.

Description for physchem: Kinetic solubility of compound at pH 7.4 by high-throughput kinetic solubility assay

In the case of `O=C(N[C@@H](Cc1ccc(O)cc1)c1nc2ccccc2[nH]1)c1cc2cc(Cl)ccc2[nH]1`, the IC50 worked out at 578 nM in data set [1], 8390 nM in the data set with HepG2 and 9460 nM with Hepatocyte.
As to `CN(C)C(=N)NC(=N)N` [METFORMIN], the OD in the data set with Mus musculus [2] was found to be 4.76; in the data set on Mus musculus [5] it was 5. Further, the figures for the plasma glucose in the data set on Mus musculus [3] and in the data set on Mus musculus [4] were 8.85 mM and 5.79 mM, respectively. Besides, in the data set on Mus musculus [6], the AUC turned out to be 374 mg/dL×min.
Regarding `CN(C)C(=O)[C@H](O)[C@H](Cc1ccccc1)NC(=O)c1cc2cc(Cl)ccc2[nH]1`, the IC50 in data set [7] is 110 nM; in [1], 92.2 nM; in the data set on HepG2, 3310 nM; with Hepatocyte, 3170 nM. Further, the solubility in data set [8] is less than 1000 µg/mL.
For the molecule `O=C(O)Cc1ccccc1Nc1c(Cl)cccc1Cl` [DICLOFENAC], in data set [9], the half-life turned out to be 27.1 min. This molecule also displayed a CLint in data set [10] of 51.2 µL/min/mg. Besides, in data set [11], the CLint scaled is 203 mL/min/kg.
As for `CN(C)CCCN1c2ccccc2Sc2ccc(Cl)cc21` [CHLORPROMAZINE], the logD in data set [12] stood at 3.23.
Consider `COC(=O)CNC(=O)[C@H](Cc1ccccc1)NC(=O)c1cc2cc(Cl)ccc2[nH]1`, for which the figures for the IC50 (in data set [1]; in the data set with HepG2; with Hepatocyte) were 48.7 nM, 662 nM and 720 nM, respectively. The same molecule yielded a logD in [12] of 3.95. Further, the Stability entry in data set [13] and in [14] was “Unstable” throughout. Also, the degraded at 24 h in data set [15] is 50%. The same molecule registered a half-life in data set [9] of 15.4 min. In data set [10], this molecule registered a CLint of 90 µL/min/mg. In data set [11], this molecule gave a CLint scaled of 356 mL/min/kg. This molecule gave a solubility (kinetic) in “physchem” of 1.89 µM (≈ 0.782 µg/mL).
Consider `O=C(O)CNC(=O)[C@H](Cc1ccccc1)NC(=O)c1cc2cc(Cl)ccc2[nH]1`, for which the results for the concentration for half-maximal inhibition (IC50) (in [1]; in the data set on HepG2; with Hepatocyte) were 289 nM, 3240 nM and 7150 nM, respectively. Besides, the logD in data set [12] is 0.72. The Stability result is recorded as “Stable” in data set [16], “Stable” in [17], “Stable” in [13] and “Unstable” in data set [18]. The half-life in [9] is more than 145 min. The CLint in [10] was less than 9.6 µL/min/mg. Besides, the CLint scaled in [11] is less than 38 mL/min/kg. Besides, the outcome with Mus musculus [19] was Active. Moreover, the Activity in the data set filed under Mus musculus [20] was 446.25 mg/dL. Besides, the OD in the data set on Mus musculus [21] worked out at 4.86; with Mus musculus [22], 4.85; in the data set with Mus musculus [23], 4.89. Also, the plasma glucose in the data set on Mus musculus [24] was found to be 9.03 mM; in the data set on Mus musculus [25], 9.52 mM; in the data set on Mus musculus [26] it was 8.92 mM; in the data set on Mus musculus [27] it was 6.83 mM; in the data set on Mus musculus [28] it was 7.62 mM; with Mus musculus [29] it was 7.4 mM. Further, the figures for the plasma glucose with Mus musculus [30], in the data set on Mus musculus [31] and with Mus musculus [32] were 6.05 mM, 6.7 mM and 7.47 mM, respectively. Also, the AUC in the data set with Mus musculus [33] is 416 mg/dL×min; in the data set with Mus musculus [34], 451 mg/dL×min; in the data set with Mus musculus [35] it was 449 mg/dL×min. The molecule also gave a kinetic solubility in the data set “physchem” of 188 µM (≈ 75.1 µg/mL).
Regarding `NC(=O)[C@@H](Cc1ccccc1)NC(=O)CNC(=O)c1cc2cc(Cl)ccc2[nH]1`, the IC50 came out at 555 nM in [1], 6470 nM in the data set on HepG2 and 7650 nM in the data set on Hepatocyte. The molecule further had a logD in data set [12] of 3.32. In addition, the Stability entry was “Stable” in [16], “Stable” in data set [17] and “Unstable” in data set [13]. Besides, in data set [9], the half-life is more than 145 min. In data set [10], this molecule displayed a CLint of less than 9.6 µL/min/mg. Besides, the CLint scaled in [11] is less than 38 mL/min/kg. For the same molecule, the solubility (kinetic) in the data set “physchem” was 36.8 µM (≈ 14.7 µg/mL).
